Measurements reported in patent US8722015B2, “Compositions and methods for treatment of angiogenesis-associated ocular disorders” (The Schepens Eye Research Institute, Inc., priority 2010, dated 2014).

Test system: pathological retinas
Assay: Staining of pathological and healthy retinas with SH peptide, confocal images
Type: binding, rat
Procedure: FIG. 7 is a series of confocal images of pathological (row A) and healthy (row B) retinas stained with either SH peptide alone (left hand column), the SH peptide and IB4, which decorates endothelial cells and activated macrophages/microglia (middle column), or SH peptide, IB4 and DAPI (right hand column). Yellow indicates either endothelial cells or activated macrophages/microglia that are also stained with the SH peptide.
The following series of experiments are performed to assess if the unique peptide insert of the SH phage is sufficient for recognition of pathological retinal vessels. A peptide corresponding to the unique insert and the 4 flanking residues on the N and 2 residues on the C termini (GGACSTEALRHCG; SEQ ID NO: 3) is synthesized. To facilitate labeling of the peptide biotin is added on the N-terminus, thereby allowing for detection of the peptide with the fluorescently labeled avidin. The labeled SH peptide, along with the scrambled version is labeled and used to stain flat mounts of RA (experienced room air instead of the OIR protocol) or OIR retinas as was done in FIG. 4. The staining protocol is optimized to identify the suitable concentration of peptide, incubation and wash conditions. If the peptides used in these experiments include all of the necessary sequence information to selectively recognize the pathological retinal vessels, then the peptides work comparably to the phage, as shown in FIG. 4.
Peptides corresponding to those expressed on the surface of the SH phage, e.g., those with the amino acid sequence STEALRH (SEQ ID NO: 2), recognized pathological retinas much more effectively than healthy retinas.

STEALRH (Protein from peptide library) [SH peptide]
comparison with the entire SH phage (strength of the signal, absence of background) (FIG. 7): superior to the entire SH phage | staining of pathological versus healthy retinas (OIR versus healthy retinas, FIG. 7): stained pathological retinas much more robustly than healthy retinas | recognition of areas without overt pathology (pathological retina, in addition to tufts): recognized areas without overt pathology
